The subject of one data set is Pseudomonas aeruginosa. The data set is described as follows: Antimicrobial activity against Pseudomonas aeruginosa ATCC 27853 after 24 hrs by M7-A7 method. Particulars: ATCC 27853, 24 h. The data set is classed as functional.
Data set [1] concerns Staphylococcus aureus. The data set is described as follows: Antimicrobial activity against glycopeptide-intermediate Staphylococcus aureus NRS1 after 24 hrs by M7-A7 method. The data set is classed as functional. Particulars: NRS1, 24 h.
A further data set has as its system Enterococcus faecalis. The data set is described as follows: Antimicrobial activity against clinical isolates of high level vancomycin-resistant Enterococcus faecalis after 24 hrs by M7-A7 method. The format is functional.
Data set [2] concerns Klebsiella pneumoniae. Kind of data set: Antimicrobial activity against NDM-1 positive Klebsiella pneumoniae BAA-2146 after 24 hrs by M7-A7 method. The format is functional. Particulars: ATCC BAA-2146, 24 h.
For data set [3], the system named is Staphylococcus aureus. Kind of data set: Antimicrobial activity against vancomycin-resistant Staphylococcus aureus NARSA VRS4 after 24 hrs by M7-A7 method. The data set is classed as functional. The conditions noted are these: NARSA VRS4, 24 h.
For data set [4], the system named is Klebsiella pneumoniae. The data set is described as follows: Antimicrobial activity against Klebsiella pneumoniae ATCC 13883 after 24 hrs by M7-A7 method. The data set is classed as functional. Particulars: ATCC 13883, 24 h.
Data set [5] relates to Staphylococcus aureus. The data set is described as follows: Antimicrobial activity against methicillin-resistant Staphylococcus aureus ATCC 43300 after 24 hrs by M7-A7 method. The format is functional. Particulars: ATCC 43300, 24 h.
The subject of data set [6] is Staphylococcus aureus. Kind of data set: Antimicrobial activity against methicillin-susceptible Staphylococcus aureus ATCC 25923 assessed as membrane burst at 16 times MIC after 3 hrs by transmission electron microscopic analysis. The format is functional, organism-based.
Data set [7] in a line: Metabolic stability in 0.1 M NH4HCO3 buffer at pH 8.16 assessed as trypsin (unknown origin)-mediated compound degradation after 2 to 12 hrs by RP-HPLC method. The conditions noted are these: human. The data set is classed as ADME.
Data set [8] deals with Staphylococcus aureus. Kind of data set: Antimicrobial activity against glycopeptide-intermediate Staphylococcus aureus NRS17 after 24 hrs by M7-A7 method. The format is functional. The conditions noted are these: NRS17, 24 h.
Data set [9] relates to Staphylococcus aureus. The data set is described as follows: Antimicrobial activity against clinical isolates of methicillin-resistant Staphylococcus aureus after 24 hrs by M7-A7 method. The format is functional.
The test system of the next data set is Acinetobacter baumannii. Kind of data set: Antimicrobial activity against Acinetobacter baumannii […] after 24 hrs by M7-A7 method. The data set is classed as functional.
The test system of another data set is Streptococcus pneumoniae. The data set is described as follows: Antimicrobial activity against multidrug resistant Streptococcus pneumoniae ATCC 700677 after 24 hrs by M7-A7 method. The format is functional. The conditions noted are these: ATCC 700677, 24 h.
Data set [10] concerns Klebsiella pneumoniae. Kind of data set: Antimicrobial activity against multidrug resistant Klebsiella pneumoniae ATCC 700603 after 24 hrs by M7-A7 method. Particulars: Klebsiella pneumoniae, 700603, 24 h. The format is functional.
The test system of another data set is Escherichia coli. Kind of data set: Antimicrobial activity against Escherichia coli ATCC 25922 after 24 hrs by M7-A7 method. The data set is classed as functional. The conditions noted are these: ATCC 25922, 24 h.
The test system of data set [11] is Staphylococcus aureus. Kind of data set: Antimicrobial activity against vancomycin-resistant Staphylococcus aureus NARSA VRS10 after 24 hrs by M7-A7 method. Particulars: NARSA VRS10, 24 h. The format is functional.
Data set [12] deals with Staphylococcus aureus. The data set is described as follows: Antimicrobial activity against clinical isolates of multi-resistant/methicillin-resistant Staphylococcus aureus after 24 hrs by M7-A7 method. The data set is classed as functional.
Data set [13] has as its system Staphylococcus aureus. The data set is described as follows: Antimicrobial activity against vancomycin-resistant Staphylococcus aureus NARSA VRS1 after 24 hrs by M7-A7 method. The format is functional. The conditions noted are these: NARSA VRS1, 24 h.
Another data set relates to Enterococcus faecium. Kind of data set: Antimicrobial activity against multidrug resistant and high level vancomycin resistant Enterococcus faecium ATCC 51559 after 24 hrs by M7-A7 method. The format is functional. The conditions noted are these: ATCC 51559, 24 h.

≈ marks a conversion by molar mass, not a printed value. Calls of active or inactive are those of the source. The rule behind the calls is not given here. Non-standard residues stand in square brackets, D forms with d. Residues, ends and D or L forms follow the SMILES beside them. ξ: configuration not given here. ξGly(decyl) = CCCCCCCCCCC(N)C(=O)O Where only a bound is given, the exact number is not on record here.

As to `CCCCCCCCCCC(NC(=O)C(CCCCCCCCCC)NC(=O)C(CCCCN)NC(=O)C(CCCCN)NC(C)=O)C(=O)NC(CCCCNC(C)=O)C(=O)NCC(N)=O` (centres undefined) (Ac-KK[ξGly(decyl)][ξGly(decyl)]K(Ac)G-NH2; configuration not given here), the MIC (as a rule, the least concentration at which growth counts as inhibited) in the data set on Pseudomonas aeruginosa was 7.5 µM (≈ 7.03 µg/mL); against Staphylococcus aureus [1], 1.9 µM (≈ 1.78 µg/mL); with Enterococcus faecalis, 1.9 µM (≈ 1.78 µg/mL); in the data set with Klebsiella pneumoniae [2] it was over 15 µM; in the data set on Staphylococcus aureus [3], 2.8 µM (≈ 2.62 µg/mL); in the data set with Klebsiella pneumoniae [4], 15 µM (≈ 14.1 µg/mL). The MIC is 1.9 µM (≈ 1.78 µg/mL) in the data set on Staphylococcus aureus [5]; 2.8 µM (≈ 2.62 µg/mL) against Staphylococcus aureus [8]; 11.3 µM (≈ 10.6 µg/mL) with Staphylococcus aureus [9]; 7.5 µM (≈ 7.03 µg/mL) in the data set on Acinetobacter baumannii; 3.8 µM (≈ 3.56 µg/mL) in the data set on Streptococcus pneumoniae; over 15 µM with Klebsiella pneumoniae [10]. In addition, the MIC in the data set with Escherichia coli was 15 µM (≈ 14.1 µg/mL); in the data set on Staphylococcus aureus [11] it was 2.8 µM (≈ 2.62 µg/mL); with Staphylococcus aureus [12], 3.8 µM (≈ 3.56 µg/mL); in the data set with Staphylococcus aureus [13], 1.9 µM (≈ 1.78 µg/mL); with Enterococcus faecium it was 2.8 µM (≈ 2.62 µg/mL). Besides, the outcome in the data set with Staphylococcus aureus [6] was Active. Besides, the Stability entry in data set [7] is “Stable”.
